Test results published in patent publication US20230027620A1, “PENTAPEPTIDE AND METHODS OF USE THEREOF” (THE BOARD OF TRUSTEES OF THE UNIVERSITY OF ILLINOIS, priority 2019, published 2023).
Entries after “also recorded” stand apart in the source; their conditions may differ. Starred links: 1 amine or outer side, 2 acyl side, 3 side chain; linkers in the order of their positions; H or OH if unused. Non-standard residues stand in square brackets, D forms with d. No end group written: not given here. (CH2)6 = -(CH2)6- hydrocarbon linking residues between repeats, C(CCC[*:2])CC[*:1]

The compounds below were run on epithelial cell migration (assay: In vitro scratch assay, truncation and scrambled peptide series (FIG. 1; cell line not given)). Settings: 80 μM; FIG. 1; vs untreated control.
Type: cell-based
Protocol: Peptides were tested for efficacy in accelerating scratch closure rates. Negative controls included untreated and multiple scrambled peptide (SP) controls. All peptides were tested at 80 μM concentration. All experiments were performed in triplicate with three technical replicates for each experiment. Statistical significance was determined by one-way ANOYA with Dunnett's post-hoc test. *p<0.05; **p<0.01; ***p<0.001. Relative closure=(% closure of treated sample)/(% closure of Untreated control).
In Vitro Scratch Assay. HCE, HCLE, HELA and MCF-7 cells were cultured in a 24-well plate at 2.5×10^5 (cells/well) seeding density, and were grown to confluence on a 24-well plate. Subsequently, a straight-line scratch mark was made with a sterile P200 pipette tip. The cells were then washed twice with phosphate-buffered saline (PBS) to remove cellular debris. Wounded areas were then treated with the peptides provided in Table 5 at various concentrations in standard medium with reduced serum conditions (0.5% FBS in MEM medium (HCE), growth factor-free K-SFM media (HCLE), 1% FBS in DMEM medium (HeLa) and 0.5% FBS in RPMI 1640 medium (MCF-7)). Scratches were photographed microscopically at 4× magnification (Image Express Micro, Molecular Devices, San Jose, Calif.) every hour over the course of the experiment. The wound area at each time-point was measured using Image J software (Image J 1.47v, NIH, Thornwood, Bethesda, Md.). Relative wound closure was calculated by dividing the closure of the treated wound by that of the untreated wound. For all the experiments including truncated histatin-5, a final concentration of 80 μM was used. PD98059 (Calbiochem, San Diego, Calif.) at final concentration of 50 μM was used as a specific inhibitor of MEK. PD98059 was added to cell cultures at the same time as histatin peptides.
To identify the residues of Hst5 required for epithelial cell migration, serial truncation experiments were performed, progressively deleting residues in Hst5. […] All peptides were tested at 80 μM. […] Thus, the SHRGY (SEQ ID NO:2) sequence is necessary and sufficient to promote epithelial migration rates in in vitro scratch assays.
In the case of DSHAKRHHGYKRKF [Hst5(1-14)], the “scratch (wound) closure rates, relative closure” value (“scratch … relative closure” for short) is reported as “no significant increase in wound closure rates”. For DSHAKRHHGYKRKFHEKHH [Hst5(1-19)], the “scratch … relative closure” value was “no significant increase in wound closure rates”. For DSHAKRHHGYKRKFHEKHHSHR [Hst5(1-22)], the “scratch … relative closure” value was “no significant increase in wound closure rates”. In the case of DSHAKRHHGYKRKFHEKHHSHRG [Hst5(1-23)], the “scratch … relative closure” value is reported as “no significant increase in wound closure rates”. With “DSHAKRHIHGYKRKFHEKHHSH (DSHAKRHHGYKRKFHEKHHSH) [Hst5(1-21)]” the “scratch … relative closure” value was “no significant increase in wound closure rates”. For HSHKEGHHYKRFKRKHHADSHRGY [SP2], the “scratch … relative closure” value was “significant increases in scratch closure rates”. With RHHGYKRKFHEKHHSHRGY [Hst5(5-24)] the “scratch … relative closure” value was “significant increases in scratch closure rates”. RYHGS [SP4] was tested, and the “scratch … relative closure” value was “did not significantly increase wound closure rates”. RYSGH [SP3] was tested, and the “scratch … relative closure” value was “did not significantly increase wound closure rates”. “SHRGY-(CH2)6-SHRGY-(CH2)6-SHRGY-(CH2)6-SHRGY (SHRGY[(CH2)6]SHRGY[(CH2)6]SHRGY[(CH2)6]SHRGY) [multimer of SHRGY composed of 4 repeating units]” was tested, and the “scratch … relative closure” value was “significant increases in scratch closure rates”. TNQQK [SP5] was tested, and the “scratch … relative closure” value was “no significant improvement in the wound closure rates”. “c-SHRGY: cyclized SHRGY peptide, prepared using a linker/spacer composed of 6-(Fmoc-amino)caproic acid, 6-(Fmoc-amino)hexanoic acid (cyclo(SHRGY); not fully specified (C-terminus))” was tested, and the “scratch … relative closure” value was “significant increases in scratch closure rates”.

Same assay, conditions: PD98059 50 μM added at the same time as Hst5
In the case of `COc1cccc(-c2cc(=O)c3ccccc3o2)c1N` [PD98059], the “effect of MEK inhibitor co-treatment on Hst5-promoted wound closure” value is reported as “eliminated the effects of Hst5 on promoting wound closure”.

Same assay, conditions: summary statement: immortalized human corneal epithelial cells, immortalized human corneal limbal epithelial cells, HeLa human cells, mouse corneal wounding models
SHDGY [pentapeptide] was tested, and the epithelial migration was “significantly enhance epithelial migration”.

Each compound was assayed on p-ERK1/2 (assay: Immunofluorescence imaging of p-ERK1/2 in scratched HCE monolayer). Settings: 80 μM, 45 minutes.
Type: cell-based, Human
Protocol: Immunofluorescence Imaging. HCE cells were seeded in 8-well chamber slide at 9×10^4 (cells/well) seeding density, and allowed to incubate to form a confluent monolayer. Subsequently, a straight-line scratch mark was made with a sterile P10 pipette tip. The cells were then washed with media to remove cellular debris. Wounded areas were subsequently left untreated or treated with Hst5, SP1 or SP2 at 80 μM concentrations in MEM media with 0.5% FBS for 45 minutes. Cells were then fixed with 4% paraformaldehyde for 30 minutes and permeabilized with 0.1% Triton X-100 for 5 minutes. After washing with PBS, cells were incubated at room temperature for 30 minutes with 5% bovine serum albumin (BSA) and 5% normal goat serum in PBS. Cells were subsequently incubated with primary antibodies diluted in 1% BSA against p-ERK1/2 (1:200) (Cell Signaling, Danver, Mass.) at 4° C. for 16 hours. After three washings with PBS, cells were incubated with fluorescein isothiocyanate-conjugated sheep anti-rabbit IgG antibody (BD Biosciences, San Jose, Calif.) (1:500) diluted in 1% BSA at room temperature for 60 minutes. After extensive washing with PBS, the cells were then stained with 4′,6-diamidino-2-phenylindole (DAPI; (Roche, Mannheim, GE) for 2 minutes for nuclear staining. The cells were mounted in Fluoro gel with Tris buffer (Electron Microscopy Sciences, Hattfield, Pa.) and observed under a confocal microscope (Zeiss LSM 710 Confocal Microscope, Oberkochen, Germany) using a 10× objective.
The level of activation/phosphorylation of ERK with and without wounding and with and without Hst5 application were investigated to determine whether the cellular signaling pathways underpinning the pro-migratory effects of Hst5 were similar to those of Hst1 in other epithelial cell types. Wounding causes an increased in phosphorylated form of ERK1/2 (p-ERK1/2). Immunolocalization was used to determine whether Hst5 application to a scratched sheet of epithelium would affect pERK1/2 levels.
With HSHKEGHHYKRFKRKHHADSHRGY [SP2] the “pERK1/2 immunolocalization / signal intensity” value was “increased pERK1/2 levels to a comparable intensity to Hst5; also recorded: elevated immunolocalization of pERK1/2”. For YHGHRHFRKHKKHKEAHSYDRGSH [SP1], the “pERK1/2 immunolocalization / signal intensity” value was “did not elicit the same increase in pERK1/2 immunolocalization”.

What follows are compounds tested on corneal epithelial wound in C57BLl6J mice (assay: Murine corneal epithelial injury (wound healing) model). Settings: applied topically to mice injured using a standardized wounding method; summary statement.
Type: in vivo
Protocol: Wounded areas were treated with Hst5, SHRGY (SEQ ID NO:2) or SP1 peptides (n=7 for each group), each tested at 80 μM concentration. Wound areas at multiple time points were measured using Image J software. […] Statistical significance was determined by a two-way ANOVA with Bonferroni post-hoc test. **P<0.01, ***P<0.001. % Wound area=(Wound area at time X/Wound area at time 0)×100.
Wound Healing Assay. Corneal wounding experiments in mice were conducted in compliance with the Association for Research in Vision and Ophthalmology (ARVO) Statement for the Use of Animals in Ophthalmic and Vision Research. The protocol was approved by the Animal Care & Use Committee of the University of Illinois at Chicago. Twelve-to-nineteen week old C57BLl6J (Jackson Laboratory, Bar Harbor, Me.) mice were anesthetized with intraperitoneal injection of ketamine (100 mg/kg) and xylazine (5 mg/kg). After applying two drops of topical 0.5% proparacaine, a 2.0-mm area of the central epithelium was demarcated using 2-mm disposable biopsy punch and removed by an AlgerBrush II (The Alger Company, Lago Vista, Tex.). In the treatment (n=7) or the control (n=7) group, Histatin=5 (80 μM), SHRGY peptide (SEQ ID NO:2; 80 μM), or SP1 (80 μM) was applied to the cornea three times a day. At 0, 18 and 24 hours, the corneas were stained with fluorescein (FUL-GLO® Fluorescein Sodium ophthalmic strips, Akorn, Lake forest, Ill.) and photographed using a NIKON FS-2 photo-slit lamp with a NIKON D200 camera (Melville, N.Y.). Wound sizes were compared with the baseline for each mouse and the percentages of wound closure was measured using Image J software.
For immunofluorescence, excised whole mouse eye was snap frozen in optimal cutting temperature compound (OCT; (Fisher Healthcare, Galderma, Calif.). The frozen tissues were cut into 10 μm cryosections (ThermoScientific NX50 Cryomicrotome, Waltham, Mass.) and subsequently were mounted on Superfrost plus slides (Thermofisher, Waltham, Mass.). Slides were fixed for 20 minutes in methanol, washed several times with PBS, stained with DAPI for 2 minutes, and further washed with PBS and deionized water. The slides were then mounted in Fluoro gel with Tris buffer (Electron Microscopy Sciences, Hattfield, Pa.) and observed under a confocal microscope (Zeiss LSM 710 Confocal Microscope, Oberkochen, Germany) using a 10× objective.
Thus, Hst5 and SHRGY (SEQ ID NO:2)-containing peptides can enhance wound healing in a well-vetted model of murine corneal epithelial injury.
“SHRGY-(CH2)6-SHRGY-(CH2)6-SHRGY-(CH2)6-SHRGY (SHRGY[(CH2)6]SHRGY[(CH2)6]SHRGY[(CH2)6]SHRGY) [multimer of SHRGY composed of 4 repeating units]” was tested, and the corneal healing was “significantly improve corneal healing”.
